Laboratory results from patent US12600725B2 (Memorial Sloan-Kettering Cancer Center, priority 2013, dated 2026).

What was measured:
Grp94 = Grp94 (Canis lupus familiaris, UniProt P41148); conditions: read-out: Grp94; FP competition, 6 nM Cy3B-GM, 10 nM protein, 4° C. for 24 h
Hsp90β = Hsp90β (Homo sapiens, UniProt P08238)
Hsp90α = Hsp90α (Homo sapiens, UniProt P07900); assay: biochemical; conditions: FP competition, 6 nM Cy3B-GM, 10 nM protein, 4° C. for 24 h
Trap-1 = target: T1, Trap-1 (Homo sapiens, UniProt Q12931); assay: biochemical
T1 sequence (Q12931 60-704): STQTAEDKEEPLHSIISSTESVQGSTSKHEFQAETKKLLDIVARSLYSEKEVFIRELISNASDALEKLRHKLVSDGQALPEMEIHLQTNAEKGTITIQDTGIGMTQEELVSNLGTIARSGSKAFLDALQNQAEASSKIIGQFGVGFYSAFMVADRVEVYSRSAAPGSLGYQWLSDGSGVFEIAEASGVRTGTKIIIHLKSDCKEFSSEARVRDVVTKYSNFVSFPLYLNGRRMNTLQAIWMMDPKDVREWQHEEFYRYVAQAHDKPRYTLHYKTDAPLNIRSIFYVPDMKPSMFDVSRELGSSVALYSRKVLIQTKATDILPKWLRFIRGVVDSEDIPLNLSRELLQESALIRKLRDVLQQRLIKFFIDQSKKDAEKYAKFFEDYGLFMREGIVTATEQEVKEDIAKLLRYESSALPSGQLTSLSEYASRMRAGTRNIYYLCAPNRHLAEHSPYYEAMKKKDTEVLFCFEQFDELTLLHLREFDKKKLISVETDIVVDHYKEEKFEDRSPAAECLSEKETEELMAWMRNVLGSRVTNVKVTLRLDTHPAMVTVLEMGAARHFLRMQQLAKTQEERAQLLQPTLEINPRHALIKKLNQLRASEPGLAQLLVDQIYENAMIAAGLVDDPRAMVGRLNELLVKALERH

Sequence of Hsp90β (P08238 whole entry): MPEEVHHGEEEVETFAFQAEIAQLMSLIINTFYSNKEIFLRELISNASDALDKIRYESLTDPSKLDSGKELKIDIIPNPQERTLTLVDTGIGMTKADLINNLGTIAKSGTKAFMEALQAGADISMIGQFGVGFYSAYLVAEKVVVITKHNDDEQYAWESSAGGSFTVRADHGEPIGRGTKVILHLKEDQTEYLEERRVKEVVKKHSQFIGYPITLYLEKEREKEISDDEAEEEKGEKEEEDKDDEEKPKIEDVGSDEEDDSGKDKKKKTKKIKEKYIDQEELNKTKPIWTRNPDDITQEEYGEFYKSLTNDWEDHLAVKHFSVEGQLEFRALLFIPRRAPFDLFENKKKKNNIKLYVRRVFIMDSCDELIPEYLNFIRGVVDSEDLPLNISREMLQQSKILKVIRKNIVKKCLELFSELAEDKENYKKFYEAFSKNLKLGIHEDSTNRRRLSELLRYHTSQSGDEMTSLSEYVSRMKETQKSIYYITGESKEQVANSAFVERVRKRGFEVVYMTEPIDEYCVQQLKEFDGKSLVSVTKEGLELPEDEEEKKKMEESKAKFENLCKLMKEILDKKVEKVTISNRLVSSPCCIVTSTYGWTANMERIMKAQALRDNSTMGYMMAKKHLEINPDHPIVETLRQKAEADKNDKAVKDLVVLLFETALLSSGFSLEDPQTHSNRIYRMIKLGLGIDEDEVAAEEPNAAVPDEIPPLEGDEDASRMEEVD
Sequence of Grp94 (P41148 with tags, fused parts or gaps DELINS287-327GGGG): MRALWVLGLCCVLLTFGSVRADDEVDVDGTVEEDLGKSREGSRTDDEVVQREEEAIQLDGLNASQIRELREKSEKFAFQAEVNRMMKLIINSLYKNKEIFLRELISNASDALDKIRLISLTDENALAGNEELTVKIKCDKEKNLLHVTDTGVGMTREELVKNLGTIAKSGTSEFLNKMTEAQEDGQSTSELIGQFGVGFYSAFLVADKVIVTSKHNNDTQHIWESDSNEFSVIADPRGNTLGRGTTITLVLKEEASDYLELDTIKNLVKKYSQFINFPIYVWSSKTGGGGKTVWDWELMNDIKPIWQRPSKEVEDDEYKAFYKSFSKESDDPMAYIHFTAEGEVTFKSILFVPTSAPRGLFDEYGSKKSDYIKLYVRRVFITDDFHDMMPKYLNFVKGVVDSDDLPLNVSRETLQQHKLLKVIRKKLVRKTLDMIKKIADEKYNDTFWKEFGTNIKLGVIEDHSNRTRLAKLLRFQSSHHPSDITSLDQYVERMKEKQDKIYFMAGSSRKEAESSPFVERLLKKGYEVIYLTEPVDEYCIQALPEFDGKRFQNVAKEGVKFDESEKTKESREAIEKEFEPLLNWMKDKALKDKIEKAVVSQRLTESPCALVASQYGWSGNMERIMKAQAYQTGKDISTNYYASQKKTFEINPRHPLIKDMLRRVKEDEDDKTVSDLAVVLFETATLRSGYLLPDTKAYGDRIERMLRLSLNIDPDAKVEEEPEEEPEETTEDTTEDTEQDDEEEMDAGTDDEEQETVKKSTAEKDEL

SMILES | IC50 (Grp94) [µM] | IC50 (Hsp90β) [µM] | IC50 (Hsp90α) [µM] | IC50 (Trap-1) [µM]
Nc1ncn(Cc2ccccc2)c2nc(Sc3cc(Cl)cc(Cl)c3)nc1-2 [PDP-107B, 3-Benzyl-8-((3,5-dichlorophenyl)thio)-3H-purin-6-amine] | 11.6 | > 100 | > 100 | > 100
C#CCCCn1c(Sc2cc(Br)cc(I)c2)nc2c(N)ncnc21 [PDP-108A] | 0.133 | > 100 | > 50 | > 50
Nc1ncnc2c1nc(Sc1cc(Cl)cc(Cl)c1)n2CCCCC(F)(F)F [PDP-109A, 8-((3,5-Dichlorophenyl)thio)-9-(5,5,5-trifluoropentyl)-9H-purin-6-amine] | 1.11 ± 0.28 | > 100 | > 100 | > 100
Nc1ncn(CCCCC(F)(F)F)c2nc(Sc3cc(Cl)cc(Cl)c3)nc1-2 [PDP-109B, 8-((3,5-Dichlorophenyl)thio)-3-(5,5,5-trifluoropentyl)-3H-purin-6-amine] | > 5 | > 100 | > 100 | > 100
Nc1ncnc2c1nc(Sc1cc(Cl)cc(Cl)c1)n2CC1CCCCC1 [PDP-110A, 9-(Cyclohexylmethyl)-8-((3,5-dichlorophenyl)thio)-9H-purin-6-amine] | 4.34 ± 0.75 | > 100 | > 100 | > 100
C#CCCCCn1c(Sc2cc(Cl)cc(Cl)c2)nc2c(N)ncnc21 [PDP-112A, 8-((3,5-Dichlorophenyl)thio)-9-(hex-5-yn-1-yl)-9H-purin-6-amine] | 0.65 ± 0.05 | > 100 | > 100 | > 100
C#CCCCCn1cnc(N)c2nc(Sc3cc(Cl)cc(Cl)c3)nc1-2 [PDP-112B, 8-((3,5-Dichlorophenyl)thio)-3-(hex-5-yn-1-yl)-3H-purin-6-amine] | > 10 | > 100 | > 100 | > 100
C#CCCCn1c(Sc2ccc(Cl)cc2C(F)(F)F)nc2c(N)ncnc21 [PDP-117A] | 1.58 | > 100 | > 100 | 34.4
C#CCCCn1c(Sc2cccc(Cl)c2Cl)nc2c(N)ncnc21 [PDP-119A] | 1.96 | > 100 | > 100 | > 100
C#CCCCn1c(Sc2cc(Br)cc(OC(F)(F)F)c2)nc2c(N)ncnc21 [PDP-120A, 8-((3-Bromo-5-(trifluoromethoxy)phenyl)thio)-9-(pent-4-yn-1-yl)-9H-purin-6-amine] | 1.21 | > 100 | > 100 | 1.87
C#CCCCn1cnc(N)c2nc(Sc3cc(Br)cc(OC(F)(F)F)c3)nc1-2 [PDP-120B] | > 10 | > 100 | > 100 | > 100
C#CCCCn1c(Sc2cc(Cl)c(Cl)c(Cl)c2)nc2c(N)ncnc21 [PDP-121] | 1.66 ± 0.48 | > 100 | > 100 | 2.2 ± 0.67
C#CCCCn1c(Sc2ccc(C(F)(F)F)cc2C(F)(F)F)nc2c(N)ncnc21 [PDP-122] | 0.5 ± 0.39 | > 100 | > 100 | 7.64 ± 2.15
C#CCCCn1c(Sc2cc(Cl)cc(Cl)c2Cl)nc2c(N)ncnc21 [PDP-125A] | 0.19 ± 0.01 | > 100 | > 100 | 6.04 ± 0.55
C#CCCCn1cnc(N)c2nc(Sc3cc(Cl)cc(Cl)c3Cl)nc1-2 [PDP-125B] | 5.21 | > 100 | > 100 | 58.8
C#CCCCn1c(Sc2ccc(Cl)c(Cl)c2Cl)nc2c(N)ncnc21 [PDP-126A] | 0.27 ± 0.14 | 18.3 ± 1.29 | 15.7 ± 0.35 | 4.03 ± 0.89
C#CCCCn1cnc(N)c2nc(Sc3ccc(Cl)c(Cl)c3Cl)nc1-2 [PDP-126B] | 8.7 | > 100 | > 100 | 34.1
Nc1ncnc2c1nc(Sc1cc(Cl)cc(Cl)c1)n2CCc1ccccc1 [PDP-127, 8-((3,5-Dichlorophenyl)thio)-9-phenethyl-9H-purin-6-amine] | > 2.5 | > 100 | > 100 | > 100
